Assay results reported in patent US20250163104A1, “MACROCYCLIC IMMUNOMODULATORS” (priority 2021, published 2025).
*1 amine or outer side, *2 acyl side, *3 side chain or, on linkers, in order; H or OH if unused. Where a SMILES comes first, the peptide text is derived from it. Bridges are numbered along the chain shown (N, C = ends). [ ]: non-standard residue; d: D form. The star is where a group is joined. ξ: configuration not given here. Phe(4-COOH) = N[C@@H](Cc1ccc(C(=O)O)cc1)C(=O)O; Bip = N[C@@H](Cc1ccc(-c2ccccc2)cc1)C(=O)O; Phe(3-Me) = Cc1cccc(C[C@H](N)C(=O)O)c1; 4Pal = N[C@@H](Cc1ccncc1)C(=O)O; Cha = N[C@@H](CC1CCCCC1)C(=O)O; Cit = NC(=O)NCCC[C@H](N)C(=O)O; Tle = CC(C)(C)[C@H](N)C(=O)O; X6 = O=C(C(CCCO)N[*:1])[*:2]; ξCit = NC(=O)NCCCC(N)C(=O)O; Carboxymethyl = O=C(O)C*; Orn = NCCC[C@H](N)C(=O)O; Pra = C#CC[C@H](N)C(=O)O; Dab = NCC[C@H](N)C(=O)O; Dap = NC[C@H](N)C(=O)O; ξOrn = NCCCC(N)C(=O)O

Each compound was assayed against T1, human PD-1 / PD-L1-Ig binding on Jurkat cell line over-expressing human PD-1 (Jurkat-PD-1) (Homo sapiens, UniProt Q15116) (assay: Jurkat-PD-1 Cell Binding High-Content Screening Assay (CBA)). Details: Jurkat-PD-1 cells, PE-labeled PD-L1-Ig 20 nM final; read-out: Jurkat HPD1_PDL1 IC50.
T1 construct: expressed in transfected cells; host or cells: Jurkat
Type: cell-based
Procedure, shortened: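 Compounds were preincubated with Jurkat-hPD-1 cells in DMEM plus 10% fetal calf serum for 2 h at 37° C. Phycoerythrin-labeled PD-L1-Ig (20 nM final) was then added for 1 hour. Cells were fixed in 4% paraformaldehyde with Hoechst 33342, and bound fluorescence was quantified by high-content imaging.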

T1 sequence (Q15116 25-288): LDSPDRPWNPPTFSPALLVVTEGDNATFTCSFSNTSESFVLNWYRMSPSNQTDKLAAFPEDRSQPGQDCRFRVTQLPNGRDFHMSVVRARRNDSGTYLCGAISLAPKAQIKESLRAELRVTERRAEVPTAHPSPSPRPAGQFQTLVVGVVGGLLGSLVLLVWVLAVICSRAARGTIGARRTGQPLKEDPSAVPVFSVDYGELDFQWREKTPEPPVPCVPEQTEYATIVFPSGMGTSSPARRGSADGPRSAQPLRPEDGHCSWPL

Going from `Cc1cccc(C[C@@H]2NC(=O)[C@H](CC(=O)O)NC(=O)[C@H](Cc3ccc(OCC(=O)O)cc3)NC(=O)[C@H](CN)NC(=O)CSC[C@@H](C(=O)N[C@@H](CCN)C(N)=O)NC(=O)C(CCCN)NC(=O)[C@H](C(C)C)NC(=O)[C@H](CC3CCCCC3)NC(=O)[C@H](CCN)NC(=O)[C@@H](CC(C)C)NC(=O)[C@H](CCCN)NC(=O)[C@H](Cc3ccc(O)cc3)NC(=O)[C@H](Cc3ccc(-c4ccccc4)cc3)NC(=O)[C@H](Cc3ccc(O)cc3)NC2=O)c1` (stereo partly drawn) [Compound 2256] ({CH2CO}-[Dap]Y(Carboxymethyl)D[Phe(3-Me)]Y[Bip]Y[Orn][dL][Dab][Cha]V[ξOrn]C[Dab]-NH2; thioether N-14) to `Cc1cccc(C[C@@H]2NC(=O)[C@H](CC(=O)O)NC(=O)[C@H](Cc3ccc(OCC(=O)O)cc3)NC(=O)[C@H](CN)NC(=O)CSC[C@@H](C(=O)N[C@@H](CCN)C(N)=O)NC(=O)C(CCCO)NC(=O)[C@H](C(C)C)NC(=O)[C@H](CC3CCCCC3)NC(=O)[C@H](CCN)NC(=O)[C@@H](CC(C)C)NC(=O)[C@H](CCCN)NC(=O)[C@H](Cc3ccc(O)cc3)NC(=O)[C@H](Cc3ccc(-c4ccccc4)cc3)NC(=O)[C@H](C(C)C)NC2=O)c1` (stereo partly drawn) [Compound 2257] ({CH2CO}-[Dap]Y(Carboxymethyl)D[Phe(3-Me)]V[Bip]Y[Orn][dL][Dab][Cha]V[X6]C[Dab]-NH2; thioether N-14), the IC50 rises from 0.0049 µM to 0.0077 µM (1.6-fold).

`C#CC[C@H](NC(=O)[C@H](CCN)NC(=O)[C@@H]1CSCC(=O)N[C@@H](CN)C(=O)N[C@@H](Cc2ccc(OCC(=O)O)cc2)C(=O)N[C@@H](CC(=O)O)C(=O)N[C@@H](Cc2cccc(C)c2)C(=O)N[C@@H](C(C)C)C(=O)N[C@@H](Cc2ccc(-c3ccccc3)cc2)C(=O)NC(CCCNC(N)=O)C(=O)N[C@@H](CCCN)C(=O)N[C@H](CC(C)C)C(=O)N[C@@H](CCN)C(=O)N[C@@H](CC2CCCCC2)C(=O)N[C@@H](C(C)C)C(=O)N[C@@H]([C@@H](C)O)C(=O)N1)C(=O)O` (stereo partly drawn) [Compound 2258] ({CH2CO}-[Dap]Y(Carboxymethyl)D[Phe(3-Me)]V[Bip][ξCit][Orn][dL][Dab][Cha]VTC[Dab][Pra]-OH; thioether N-14) and `C#CC[C@H](NC(=O)[C@H](CCN)NC(=O)[C@@H]1CSCC(=O)N[C@@H](CN)C(=O)N[C@@H](Cc2ccc(OCC(=O)O)cc2)C(=O)N[C@@H](CC(=O)O)C(=O)N[C@@H](Cc2cccc(C)c2)C(=O)N[C@@H](C(C)C)C(=O)N[C@@H](Cc2ccc(-c3ccccc3)cc2)C(=O)N[C@@H](CCCNC(N)=O)C(=O)N[C@@H](CCCN)C(=O)N[C@H](CC(C)C)C(=O)N[C@@H](CCN)C(=O)N[C@@H](CC2CCCCC2)C(=O)N[C@@H](C(C)C)C(=O)N[C@@H]([C@@H](C)O)C(=O)N1)C(N)=O` [Compound 2261] ({CH2CO}-[Dap]Y(Carboxymethyl)D[Phe(3-Me)]V[Bip][Cit][Orn][dL][Dab][Cha]VTC[Dab][Pra]-NH2; thioether N-14) are within 1.5-fold of each other in IC50: 0.0149 µM for the first, 0.016 µM for the second.

Compared with `C#CC[C@H](NC(=O)[C@H](C)NC(=O)[C@@H]1CSCC(=O)N[C@@H](CN)C(=O)N[C@@H](Cc2ccc(OCC(=O)O)cc2)C(=O)N[C@@H](CC(=O)O)C(=O)N[C@@H](Cc2cccc(C)c2)C(=O)N[C@@H](C(C)C)C(=O)N[C@@H](Cc2ccc(-c3ccccc3)cc2)C(=O)N[C@@H](CCCNC(N)=O)C(=O)N[C@@H](CCCN)C(=O)N[C@H](CC(C)C)C(=O)N[C@@H](CCN)C(=O)N[C@@H](CC2CCCCC2)C(=O)N[C@@H](C(C)C)C(=O)N[C@@H]([C@@H](C)O)C(=O)N1)C(=O)O` [Compound 2259], `C#CC[C@H](NC(=O)CNC(=O)[C@@H]1CSCC(=O)N[C@@H](CN)C(=O)N[C@@H](Cc2ccc(OCC(=O)O)cc2)C(=O)N[C@@H](CC(=O)O)C(=O)N[C@@H](Cc2cccc(C)c2)C(=O)N[C@@H](C(C)C)C(=O)N[C@@H](Cc2ccc(-c3ccccc3)cc2)C(=O)N[C@@H](CCCNC(N)=O)C(=O)N[C@@H](CCCN)C(=O)N[C@H](CC(C)C)C(=O)N[C@@H](CCN)C(=O)N[C@@H](CC2CCCCC2)C(=O)N[C@@H](C(C)C)C(=O)N[C@@H]([C@@H](C)O)C(=O)N1)C(=O)O` [Compound 2260] ({CH2CO}-[Dap]Y(Carboxymethyl)D[Phe(3-Me)]V[Bip][Cit][Orn][dL][Dab][Cha]VTCG[Pra]-OH; thioether N-14) is 1.6-fold lower in IC50: 0.0443 µM for the first, 0.0281 µM for the second.

First: C#CC[C@H](NC(=O)[C@H](C)NC(=O)[C@@H]1CSCC(=O)N[C@@H](CN)C(=O)N[C@@H](Cc2ccc(OCC(=O)O)cc2)C(=O)N[C@@H](CC(=O)O)C(=O)N[C@@H](Cc2cccc(C)c2)C(=O)N[C@@H](C(C)C)C(=O)N[C@@H](Cc2ccc(-c3ccccc3)cc2)C(=O)N[C@@H](CCCNC(N)=O)C(=O)N[C@@H](CCCN)C(=O)N[C@H](CC(C)C)C(=O)N[C@@H](CCN)C(=O)N[C@@H](CC2CCCCC2)C(=O)N[C@@H](C(C)C)C(=O)N[C@@H]([C@@H](C)O)C(=O)N1)C(=O)O [Compound 2262]
Second: C#CC[C@H](NC(=O)CNC(=O)[C@@H]1CSCC(=O)N[C@@H](CN)C(=O)N[C@@H](Cc2ccc(OCC(=O)O)cc2)C(=O)N[C@@H](CC(=O)O)C(=O)N[C@@H](Cc2cccc(C)c2)C(=O)N[C@@H](C(C)C)C(=O)N[C@@H](Cc2ccc(-c3ccccc3)cc2)C(=O)N[C@@H](CCCNC(N)=O)C(=O)N[C@@H](CCCN)C(=O)N[C@H](CC(C)C)C(=O)N[C@@H](CCN)C(=O)N[C@@H](CC2CCCCC2)C(=O)N[C@@H](C(C)C)C(=O)N[C@@H]([C@@H](C)O)C(=O)N1)C(=O)O [Compound 2263] ({CH2CO}-[Dap]Y(Carboxymethyl)D[Phe(3-Me)]V[Bip][Cit][Orn][dL][Dab][Cha]VTCG[Pra]-OH; thioether N-14)
The IC50 of the first is 5.3-fold higher: 0.0636 µM for the first, 0.0121 µM for the second.

`Cc1cccc(C[C@@H]2NC(=O)[C@H](CC(=O)O)NC(=O)[C@H](Cc3ccc(OCC(=O)O)cc3)NC(=O)[C@H](CN)NC(=O)CSC[C@@H](C(N)=O)NC(=O)[C@H](CCCN)NC(=O)[C@H](C(C)C)NC(=O)[C@H](CC3CCCCC3)NC(=O)[C@H](CCN)NC(=O)[C@@H](CC(C)C)NC(=O)[C@H](CCCN)NC(=O)[C@H](Cc3ccc(O)cc3)NC(=O)[C@H](Cc3ccc(-c4ccccc4)cc3)NC(=O)[C@H](C(C)C)NC2=O)c1` [Compound 2264] ({CH2CO}-[Dap]Y(Carboxymethyl)D[Phe(3-Me)]V[Bip]Y[Orn][dL][Dab][Cha]V[Orn]C-NH2; thioether N-14) and `Cc1cccc(C[C@@H]2NC(=O)[C@H](CC(=O)O)NC(=O)[C@H](Cc3ccc(C(=O)O)cc3)NC(=O)[C@H](Cc3ccncc3)NC(=O)CSC[C@@H](C(N)=O)NC(=O)[C@H](CCCN)NC(=O)[C@H](C(C)C)NC(=O)[C@H](CC3CCCCC3)NC(=O)[C@H](CCN)NC(=O)[C@@H](CC(C)C)NC(=O)[C@H](CCCN)NC(=O)[C@H](CCCNC(N)=O)NC(=O)[C@H](Cc3ccc(-c4ccccc4)cc3)NC(=O)[C@H](C(C)C)NC2=O)c1` [Compound 2265] ({CH2CO}-[4Pal][Phe(4-COOH)]D[Phe(3-Me)]V[Bip][Cit][Orn][dL][Dab][Cha]V[Orn]C-NH2; thioether N-14) are within 1.5-fold of each other in IC50: 0.0119 µM for the first, 0.0128 µM for the second.

`Cc1cccc(C[C@@H]2NC(=O)[C@H](CC(=O)O)NC(=O)[C@H](Cc3ccc(C(=O)O)cc3)NC(=O)[C@H](Cc3ccncc3)NC(=O)CSC[C@@H](C(N)=O)NC(=O)[C@H]([C@@H](C)O)NC(=O)[C@H](C(C)(C)C)NC(=O)[C@H](CC3CCCCC3)NC(=O)[C@H](CCN)NC(=O)[C@@H](CC(C)C)NC(=O)[C@H](CCCN)NC(=O)[C@H](CCCNC(N)=O)NC(=O)[C@H](Cc3ccc(-c4ccccc4)cc3)NC(=O)[C@H](C(C)C)NC2=O)c1` [Compound 2266] ({CH2CO}-[4Pal][Phe(4-COOH)]D[Phe(3-Me)]V[Bip][Cit][Orn][dL][Dab][Cha][Tle]TC-NH2; thioether N-14) and `Cc1cccc(C[C@@H]2NC(=O)[C@H](CC(=O)O)NC(=O)[C@H](Cc3ccc(C(=O)O)cc3)NC(=O)[C@H](Cc3ccncc3)NC(=O)CSC[C@@H](C(N)=O)NC(=O)[C@H](CO)NC(=O)[C@H](C(C)C)NC(=O)[C@H](CC3CCCCC3)NC(=O)[C@H](CCN)NC(=O)[C@@H](CC(C)C)NC(=O)[C@H](CCCN)NC(=O)[C@H](CCCNC(N)=O)NC(=O)[C@H](Cc3ccc(-c4ccccc4)cc3)NC(=O)[C@H](C(C)C)NC2=O)c1` [Compound 2268] ({CH2CO}-[4Pal][Phe(4-COOH)]D[Phe(3-Me)]V[Bip][Cit][Orn][dL][Dab][Cha]VSC-NH2; thioether N-14) are within 1.5-fold of each other in IC50: 0.0182 µM for the first, 0.0268 µM for the second.

`Cc1cccc(C[C@@H]2NC(=O)[C@H](CC(=O)O)NC(=O)[C@H](Cc3ccc(C(=O)O)cc3)NC(=O)[C@H](Cc3ccncc3)NC(=O)CSC[C@@H](C(N)=O)NC(=O)[C@H]([C@@H](C)O)NC(=O)[C@H](C(C)C)NC(=O)[C@H](CC(C)C)NC(=O)[C@H](CCN)NC(=O)[C@@H](CC(C)C)NC(=O)[C@H](CCCN)NC(=O)[C@H](CCCNC(N)=O)NC(=O)[C@H](Cc3ccc(-c4ccccc4)cc3)NC(=O)[C@H](C(C)C)NC2=O)c1` [Compound 2267] ({CH2CO}-[4Pal][Phe(4-COOH)]D[Phe(3-Me)]V[Bip][Cit][Orn][dL][Dab]LVTC-NH2; thioether N-14) and `Cc1cccc(C[C@@H]2NC(=O)[C@H](CC(=O)O)NC(=O)[C@H](Cc3ccc(C(=O)O)cc3)NC(=O)[C@H](Cc3ccncc3)NC(=O)CSC[C@@H](C(N)=O)NC(=O)[C@H](CCC(=O)O)NC(=O)[C@H](C(C)C)NC(=O)[C@H](CC3CCCCC3)NC(=O)[C@H](CCN)NC(=O)[C@@H](CC(C)C)NC(=O)[C@H](CCCN)NC(=O)[C@H](CCCNC(N)=O)NC(=O)[C@H](Cc3ccc(-c4ccccc4)cc3)NC(=O)[C@H](C(C)C)NC2=O)c1` [Compound 2269] ({CH2CO}-[4Pal][Phe(4-COOH)]D[Phe(3-Me)]V[Bip][Cit][Orn][dL][Dab][Cha]VEC-NH2; thioether N-14) are within 1.5-fold of each other in IC50: 0.0448 µM for the first, 0.0341 µM for the second.
